#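 Exposure lasted 48 hours, with cells grown in 96-well plates and compounds tested at five concentrations. GI50: concentration for 50% inhibition of growth. Definition used: TGI = concentration required for complete inhibition of growth.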
# How the values were obtained:
# Assay in all cases: NCI anticancer screen, dose series, 48 h
# OVCAR-8 ovarian = tested on: OVCAR-8 ovarian
# K-562 leukemia = tested on: K-562 leukemia
# SNB-19 CNS = tested on: SNB-19 CNS
# OVCAR-4 ovarian = tested on: OVCAR-4 ovarian
# LOX IMVI melanoma = tested on: LOX IMVI melanoma
# SW-620 colon = tested on: SW-620 colon
# HOP-92 NSCLC = tested on: HOP-92 NSCLC
# NCI/ADR-RES ovarian = tested on: NCI/ADR-RES ovarian
# A549 NSCLC = tested on: A549 NSCLC
# SF-295 CNS = tested on: SF-295 CNS
# UACC-62 melanoma = tested on: UACC-62 melanoma
# SK-MEL-5 melanoma = tested on: SK-MEL-5 melanoma
# HL-60(TB) leukemia = tested on: HL-60(TB) leukemia
# TK-10 renal = tested on: TK-10 renal
# A498 renal = tested on: A498 renal
# SF-268 CNS = tested on: SF-268 CNS
# RXF 393 renal = tested on: RXF 393 renal
# SR leukemia = tested on: SR leukemia
# KM12 colon = tested on: KM12 colon
# SK-MEL-2 melanoma = tested on: SK-MEL-2 melanoma
# U251 CNS = tested on: U251 CNS
# SK-MEL-28 melanoma = tested on: SK-MEL-28 melanoma
# CAKI-1 renal = tested on: CAKI-1 renal
# MALME-3M melanoma = tested on: MALME-3M melanoma
# HT29 colon = tested on: HT29 colon
# MDA-MB-435 = tested on: MDA-MB-435
# HCT-15 colon = tested on: HCT-15 colon
# NCI-H522 lung = tested on: NCI-H522 lung
# CCRF-CEM leukemia = tested on: CCRF-CEM leukemia
# SNB-75 CNS = tested on: SNB-75 CNS
# M14 melanoma = tested on: M14 melanoma
# NCI-H460 lung = tested on: NCI-H460 lung
# IGROV1 ovarian = tested on: IGROV1 ovarian
# RPMI-8226 leukemia = tested on: RPMI-8226 leukemia
# OVCAR-3 ovarian = tested on: OVCAR-3 ovarian
# OVCAR-5 ovarian = tested on: OVCAR-5 ovarian
# NCI-H226 lung = tested on: NCI-H226 lung
# HS 578T breast = tested on: HS 578T breast
# COLO 205 colon = tested on: COLO 205 colon
# EKVX NSCLC = tested on: EKVX NSCLC
# ACHN renal = tested on: ACHN renal
# HCC-2998 colon = tested on: HCC-2998 colon
# SN12C renal = tested on: SN12C renal
# SF-539 CNS = tested on: SF-539 CNS
# T-47D breast = tested on: T-47D breast
# 786-0 renal = tested on: 786-0 renal
# UACC-257 melanoma = tested on: UACC-257 melanoma
# HOP-62 NSCLC = tested on: HOP-62 NSCLC
# MCF7 breast = tested on: MCF7 breast
# UO-31 renal = tested on: UO-31 renal
# NCI-H23 lung = tested on: NCI-H23 lung
# HCT-116 colon = tested on: HCT-116 colon
# MDA-MB-231 breast = tested on: MDA-MB-231 breast
# BT-549 breast = tested on: BT-549 breast
# DU-145 prostate = tested on: DU-145 prostate
# PC-3 prostate = tested on: PC-3 prostate
# MOLT-4 leukemia = tested on: MOLT-4 leukemia
# SK-OV-3 ovarian = tested on: SK-OV-3 ovarian
smiles,measurement,setting,value
O=C(OCC1=CC(=O)c2ccccc2C1=O)c1ccccc1,GI50,OVCAR-8 ovarian,14.4 µM
same,TGI,OVCAR-8 ovarian,29.1 µM
same,GI50,K-562 leukemia,9.47 µM
same,TGI,K-562 leukemia,34.5 µM
same,GI50,SNB-19 CNS,10.3 µM
same,TGI,SNB-19 CNS,22.4 µM
same,GI50,OVCAR-4 ovarian,13.2 µM
same,TGI,OVCAR-4 ovarian,28.4 µM
same,GI50,LOX IMVI melanoma,5.69 µM
same,TGI,LOX IMVI melanoma,21.5 µM
same,GI50,SW-620 colon,4.89 µM
same,TGI,SW-620 colon,17.5 µM
same,GI50,HOP-92 NSCLC,20.2 µM
same,TGI,HOP-92 NSCLC,34.9 µM
same,GI50,NCI/ADR-RES ovarian,21.7 µM
same,TGI,NCI/ADR-RES ovarian,60.1 µM
same,GI50,A549 NSCLC,2.41 µM
same,TGI,A549 NSCLC,6.24 µM
same,GI50,SF-295 CNS,6.41 µM
same,TGI,SF-295 CNS,20.5 µM
same,GI50,UACC-62 melanoma,3.27 µM
same,TGI,UACC-62 melanoma,9.02 µM
same,GI50,SK-MEL-5 melanoma,1.31 µM
same,TGI,SK-MEL-5 melanoma,2.68 µM
same,GI50,HL-60(TB) leukemia,3.72 µM
same,TGI,HL-60(TB) leukemia,14.1 µM
same,GI50,TK-10 renal,15.9 µM
same,TGI,TK-10 renal,29.6 µM
same,GI50,A498 renal,18.6 µM
same,TGI,A498 renal,36.8 µM
same,GI50,SF-268 CNS,14.1 µM
same,TGI,SF-268 CNS,29.6 µM
same,GI50,RXF 393 renal,13.6 µM
same,TGI,RXF 393 renal,26.5 µM
same,GI50,SR leukemia,3.51 µM
same,TGI,SR leukemia,30.8 µM
same,GI50,KM12 colon,11.6 µM
same,TGI,KM12 colon,24.7 µM
same,GI50,SK-MEL-2 melanoma,12.3 µM
same,TGI,SK-MEL-2 melanoma,35.9 µM
same,GI50,U251 CNS,14.6 µM
same,TGI,U251 CNS,28.5 µM
same,GI50,SK-MEL-28 melanoma,13 µM
same,TGI,SK-MEL-28 melanoma,28 µM
same,GI50,CAKI-1 renal,10.4 µM
same,TGI,CAKI-1 renal,22.8 µM
same,GI50,MALME-3M melanoma,1.43 µM
same,TGI,MALME-3M melanoma,3.12 µM
same,GI50,HT29 colon,8.13 µM
same,TGI,HT29 colon,37.7 µM
same,GI50,MDA-MB-435,1.98 µM
same,TGI,MDA-MB-435,3.66 µM
same,GI50,HCT-15 colon,10.6 µM
same,TGI,HCT-15 colon,29.5 µM
same,GI50,NCI-H522 lung,15 µM
same,TGI,NCI-H522 lung,28.6 µM
same,GI50,CCRF-CEM leukemia,6.73 µM
same,TGI,CCRF-CEM leukemia,35.4 µM
same,GI50,SNB-75 CNS,14.7 µM
same,TGI,SNB-75 CNS,29.4 µM
same,GI50,M14 melanoma,1.72 µM
same,TGI,M14 melanoma,3.59 µM
same,GI50,NCI-H460 lung,1.99 µM
same,TGI,NCI-H460 lung,6.19 µM
same,GI50,IGROV1 ovarian,12.5 µM
same,TGI,IGROV1 ovarian,25.6 µM
same,GI50,RPMI-8226 leukemia,21.3 µM
same,TGI,RPMI-8226 leukemia,> 100 µM
same,GI50,OVCAR-3 ovarian,3.47 µM
same,TGI,OVCAR-3 ovarian,18.7 µM
same,GI50,OVCAR-5 ovarian,24.1 µM
same,TGI,OVCAR-5 ovarian,41.1 µM
same,GI50,NCI-H226 lung,14.1 µM
same,TGI,NCI-H226 lung,31.5 µM
same,GI50,HS 578T breast,14.3 µM
same,TGI,HS 578T breast,51.7 µM
same,GI50,COLO 205 colon,2.74 µM
same,TGI,COLO 205 colon,10.7 µM
same,GI50,EKVX NSCLC,12.9 µM
same,TGI,EKVX NSCLC,27.5 µM
same,GI50,ACHN renal,15 µM
same,TGI,ACHN renal,28.4 µM
same,GI50,HCC-2998 colon,6.14 µM
same,TGI,HCC-2998 colon,18.8 µM
same,GI50,SN12C renal,15.1 µM
same,TGI,SN12C renal,28.5 µM
same,GI50,SF-539 CNS,12.2 µM
same,TGI,SF-539 CNS,25.3 µM
same,GI50,T-47D breast,14.6 µM
same,TGI,T-47D breast,42.3 µM
same,GI50,786-0 renal,18.9 µM
same,TGI,786-0 renal,33.8 µM
same,GI50,UACC-257 melanoma,3.13 µM
same,TGI,UACC-257 melanoma,9.47 µM
same,GI50,HOP-62 NSCLC,14.4 µM
same,TGI,HOP-62 NSCLC,29.6 µM
same,GI50,MCF7 breast,13.2 µM
same,TGI,MCF7 breast,26.8 µM
same,GI50,UO-31 renal,15.6 µM
same,TGI,UO-31 renal,29.1 µM
same,GI50,NCI-H23 lung,6.28 µM
same,TGI,NCI-H23 lung,24.8 µM
same,GI50,HCT-116 colon,15.5 µM
same,TGI,HCT-116 colon,29.7 µM
same,GI50,MDA-MB-231 breast,14.3 µM
same,TGI,MDA-MB-231 breast,28.5 µM
same,GI50,BT-549 breast,13.8 µM
same,TGI,BT-549 breast,27 µM
same,GI50,DU-145 prostate,1.83 µM
same,TGI,DU-145 prostate,3.6 µM
same,GI50,PC-3 prostate,14.1 µM
same,TGI,PC-3 prostate,38 µM
C[C@]12CC[C@H]3[C@@H](CC=C4C[C@@H](O)CC[C@@]43C)[C@@H]1C/C(=C\c1ccc([N+](=O)[O-])cc1)[C@@H]2O,TGI,OVCAR-8 ovarian,36.9 µM
same,TGI,K-562 leukemia,> 100 µM
same,TGI,SNB-19 CNS,38.7 µM
same,TGI,OVCAR-4 ovarian,3.7 µM
same,TGI,LOX IMVI melanoma,> 100 µM
same,TGI,SW-620 colon,> 100 µM
same,TGI,HOP-92 NSCLC,91.7 µM
same,TGI,NCI/ADR-RES ovarian,48.4 µM
same,TGI,A549 NSCLC,25.1 µM
same,TGI,SF-295 CNS,46.5 µM
same,TGI,UACC-62 melanoma,34.1 µM
same,TGI,SK-MEL-5 melanoma,23.2 µM
same,TGI,HL-60(TB) leukemia,80.9 µM
same,TGI,TK-10 renal,55.2 µM
same,TGI,A498 renal,42.4 µM
same,TGI,SF-268 CNS,> 100 µM
same,TGI,RXF 393 renal,21.4 µM
same,TGI,SR leukemia,> 100 µM
same,TGI,KM12 colon,> 100 µM
same,TGI,SK-MEL-2 melanoma,52.9 µM
same,TGI,SK-MEL-28 melanoma,57.6 µM
same,TGI,CAKI-1 renal,36.8 µM
same,TGI,MALME-3M melanoma,53 µM
same,TGI,HT29 colon,20.6 µM
same,TGI,MDA-MB-435,> 100 µM
same,TGI,HCT-15 colon,> 100 µM
same,TGI,NCI-H522 lung,32.7 µM
same,TGI,CCRF-CEM leukemia,> 100 µM
same,TGI,SNB-75 CNS,32.1 µM
same,TGI,M14 melanoma,> 100 µM
same,TGI,NCI-H460 lung,72.9 µM
same,TGI,IGROV1 ovarian,> 100 µM
same,TGI,RPMI-8226 leukemia,> 100 µM
same,TGI,OVCAR-3 ovarian,37.1 µM
same,TGI,OVCAR-5 ovarian,78.4 µM
same,TGI,NCI-H226 lung,55.2 µM
same,TGI,HS 578T breast,> 100 µM
same,TGI,COLO 205 colon,> 100 µM
same,TGI,MOLT-4 leukemia,> 100 µM
same,TGI,EKVX NSCLC,26.5 µM
same,TGI,ACHN renal,24.4 µM
same,TGI,HCC-2998 colon,30.4 µM
same,TGI,SN12C renal,22.9 µM
same,TGI,SF-539 CNS,34.5 µM
same,TGI,T-47D breast,29.5 µM
same,TGI,786-0 renal,22.8 µM
same,TGI,UACC-257 melanoma,59 µM
same,TGI,HOP-62 NSCLC,27.7 µM
same,TGI,MCF7 breast,19.6 µM
same,TGI,UO-31 renal,24.4 µM
same,TGI,NCI-H23 lung,51.7 µM
same,TGI,HCT-116 colon,14 µM
same,TGI,MDA-MB-231 breast,22.6 µM
same,TGI,SK-OV-3 ovarian,28.1 µM
same,TGI,BT-549 breast,38 µM
same,TGI,DU-145 prostate,23 µM
same,TGI,PC-3 prostate,33.5 µM

# Source: PubChem BioAssay (NCI)
